Entries after “also recorded” stand apart in the source; their conditions may differ.
What was measured:
[1] = biological target: r(G4C2)8 and hnRNP H1 complex; test: TR-FRET hnRNP H binding assay; type: biochemical; conditions: inhibiting r(G4C2)8 and hnRNP H1 complex formation; 7 in the absence of Rnase L
Procedure: TR-FRET hnRNP H Binding Assay. TR-FRET assays were performed as previously described (12). The mixture was incubated for 15 min at room temperature and then hnRNP H1-His6 was added. After an additional 15 min incubation, streptavidin-XL665 (HTRF, Cisbio Bioassays) and anti-His6-Tb (HTRF, Cisbio Bioassays) were added to a final concentration of 40 nM and 0.44 ng/μL, respectively. After incubating for 1 h, TR-FRET was measured as previously described (12).

[2] = system: r(G4C2)66-No ATG-GFP mRNA; test: RNA levels in transfected HEK293T cells by RT-qPCR; type: cell-based, human
Procedure: Measuring RNA Levels in HEK Cells. HEK293T cells were seeded at 2×10^6 in 100 mm dish and incubated at 37° C. overnight. Cells were transfected with 2.5 μg of the (G4C2)66-No ATG-GFP plasmid with Lipofectamine 3000 (Life Technologies) per the manufacturer's protocols. After 5 h, the cells were collected and split into 24-well plate with 5×10^4 cells per well. After 2 h, the compounds were added and incubated for another 24 h.
Total RNA was extracted using a Quick-RNA Miniprep Kit (Zymo Research) per the manufacturer's protocol. Approximately 1 μg of total RNA, as determined by Nanodrop, was used for reverse transcription using qScript Kit (Quantbio) per the manufacturer's protocol. RT-qPCR was performed on a 7900HT Fast Real Time PCR System (Applied Biosystem) using Power SYBR Green Master Mix (Applied Biosystems). Expression levels of mRNAs were normalized to β-actin.
Rnase L Knockdown. HEK293T cells were seeded in growth medium in a 100 mm dish and incubated at 37° C. until ˜80% confluent. Cells were transfected with 2.5 µg (G4C2)66-No-ATG-GFP for 5 h with Lipofectamine 3000 (Life Technologies) per the manufacturer's recommended protocol. Following transfection, the cells were plated in 6-well plates and incubated at 37° C. until ˜80% confluent. Compounds were added in growth medium and incubated for 24 h. Following compound treatment, the siRNA of interest (Table 3) were transfected with RNAiMax (Life Technologies) at a final concentration of 50 nM for 24 h per the manufacturer's recommended protocol. Total RNA was extracted using a Quick-RNA Miniprep Kit (Zymo Research) per the manufacturer's protocol. Intron 1 abundance was assessed by RT-qPCR as described above.

Poly(GP) = Poly(GP) by immunoassay in patient-derived iPSCs; type: cell-based, human; conditions: for Poly(GP) levels: iPSCs from c9ALS patients
Procedure: iPSCs were treated for 4 days in Matrigel (356234, Corning) coated plates with mTeSR™1 feeder-free medium ([…] Technologies; Catalog #85850). Cells were treated in 6-well plates on day 1 and 3 with compounds diluted in 0.1% final DMSO.
Measuring Poly(GP) Levels by Electrochemiluminescence. LCLs were seeded in T-25 flash at 400,000 cells/mL in 5 mL of growth medium. After overnight incubation, the cells were treated with compound or ASO for 4 days at 37° C. After the treatment period, the cells were pelleted, and total protein was extracted by incubating with CoIP2 Buffer (50 mM Tris-HCL, pH 7.4, 300 mM NaCl, 5 mM EDTA, 1% (v/v) Triton-X 100, 2% (w/v) sodium dodecyl sulfate, and 0.01% (v/v) protease and phosphatase inhibitors) on ice for 5 min and then sonication (3 s intervals at 35% power for ˜40 s). Detergent was then removed using Pierce™ Detergent Removal Spin Columns following manufacturer's protocol. Protein concentration was measured by Pierce™ BCA Protein Assay Kit.
Levels of poly(GP) were measured using Meso Scale Discovery MSD Gold 96-well Streptavidin SECTOR plates. Both capture and detection antibodies were generated using an anti-poly(GP) antibody kindly provided by the Target ALS Foundation. To serve as the capture antibody, the poly(GP) antibody was conjugated to biotin using EZ-Link™ Sulfo-NHS-LC-Biotin (Thermo Fisher) as per the manufacturer's protocol. To serve as the detection antibody, the poly(GP) antibody was sulfo-tagged using MSD GOLD SULFO-TAG NHS-Ester (Meso Scale Discovery) as per the manufacturer's protocol. The conjugated antibodies were desalted with 40K Zeba™ Spin Desalting Columns (Thermo Fisher Scientific), and their concentrations were determined by Pierce™ BCA Protein Assay Kit.
Briefly, the plates were incubated with 2 μg/ml of anti-poly(GP)-biotin antibody at 4° C. overnight. […] After washing with 150 μL of 1×TBST three times, 1×MSD GOLD Read Buffer was added to each well, and electrochemiluminescence was measured using a SECTOR Imager (MSD). […]

IC50 [1] | Compound | r(G4C2)66 levels ([2]; HEK293T) | Poly(GP) levels (Poly(GP)) | reduction of r(G4C2)exp-containing mRNA ([2]; 500 nM compound) | ability to reduce r(G4C2)exp levels upon knock down of Rnase L by siRNA ([2]; RNase L siRNA versus control siRNA) | potency and duration of activity for reducing Poly(GP) abundance compared to parent compound 3 (Poly(GP))
900 ± 100 nM | Cc1c2ccncc2c(C)c2c1[nH]c1ccc(OCCOCCOCCNCCOCCOCCOc3ccc4[nH]c5c(C)c6ccncc6c(C)c5c4c3)cc12 [Compound 3] | without affecting | reduced Poly(GP) levels dose-dependently | – | – | –
2400 ± 100 nM | CCOC(=O)C1=C(Nc2ccccc2)S/C(=C\c2ccc(OCCOCCOCCOCCNC(=O)CCC(=O)N(CCOCCOCCOc3ccc4[nH]c5c(C)c6ccncc6c(C)c5c4c3)CCOCCOCCOc3ccc4[nH]c5c(C)c6ccncc6c(C)c5c4c3)c(O)c2)C1=O [Compound 7] | – | significant reduction | 46±2% | ablated | significant increase in potency and a prolonged period of activity; also recorded: significant (P<0.05) increase in potency and a prolonged duration of activity

Source: patent publication US20230381170A1, “METHOD FOR TREATING ALS/FTD THROUGH DEGRADATION OF RNA REPEAT EXPANSION” (University of Florida Research Foundation, Incorporated, priority 2020, published 2023)
